Test results: patent US6376510B1, “Neuromuscular relaxants” (Newlaxant LLC, priority 1997, dated 2002)

What was measured:
rabbits = assay: In vivo neuromuscular block and cardiovascular side effects, rabbit (Example 8, Table 7); conditions: for ED50: Oryctolagus cuniculus, intravenous dose causing 50% neuromuscular block, read-out: ED50; for ΔBP (change in arterial blood pressure) / ΔH (change in heart rate): at 80-85% neuromuscular blocking dose; for RI (recovery index): spontaneous recovery, 25-75% neuromuscular response; for Onset: time to 80-85% neuromuscular block
[1] = system: anesthetized rats (evoked responses of anterior tibial muscle); assay: In vivo neuromuscular block and cardiovascular side effects, anesthetized rat (Example 8, Table 3); conditions: for ED50: Rattus norvegicus, iv; for VB (vagal block) / ΔBP (change in arterial blood pressure) / ΔH (change in heart rate) / RI (recovery index) / Onset: rat; for VB (vagal block) / ΔBP (change in arterial blood pressure) / ΔH (change in heart rate): at 80-85% neuromuscular blocking dose; for RI (recovery index): spontaneous recovery, 25-75% neuromuscular response; for Onset: time to 80-85% neuromuscular block
Method in brief: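 Pentobarbital-anesthetized (i.p.), ventilated adult male rats given saline-dissolved agents i.v.; anterior tibial EMG responses to supramaximal single or train-of-four sciatic/peroneal stimuli, plus 0.1 or 1 Hz stimulation. Doses for 50%, 80%, 90% block derived. Onset: minutes to 80-85% block; RI: 25-75% spontaneous recovery; vagal block, heart rate and blood pressure changes (%) at 80-85% blocking dose.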

anesthetized monkeys = assay: In vivo neuromuscular block and cardiovascular side effects, monkey (Example 8, Table 6); conditions: for ED50: Primates, intravenous dose causing 50% neuromuscular block, read-out: ED50; for ΔBP (change in arterial blood pressure) / ΔH (change in heart rate): at 80-85% neuromuscular blocking dose; for RI (recovery index): spontaneous recovery, 25-75% neuromuscular response; for Onset: time to 80-85% neuromuscular block
Method in brief: (§1)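 Electromyographic and mechanomyographic responses quantified. Monkeys sedated with intramuscular ketamine, then general anesthesia with intravenous pentobarbital and propofol; juvenile pigs induced with inhaled halothane.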

dogs = assay: animal or person; format: in vivo; conditions: dog; for ED50: Canis lupus familiaris, intravenous dose causing 50% neuromuscular block, read-out: ED50; for ΔBP (change in arterial blood pressure) / ΔH (change in heart rate): at 80-85% neuromuscular blocking dose; for RI (recovery index): spontaneous recovery, 25-75% neuromuscular response; for Onset: time to 80-85% neuromuscular block
[2] = system: anesthetized juvenile pigs; assay: animal or person; format: in vivo; conditions: pig; for ED50: Sus scrofa, intravenous dose causing 50% neuromuscular block, read-out: ED50; for VB (vagal block) / ΔBP (change in arterial blood pressure) / ΔH (change in heart rate): at 80-85% neuromuscular blocking dose; for RI (recovery index): spontaneous recovery, 25-75% neuromuscular response; for Onset: time to 80-85% neuromuscular block
Method in brief: as §1

[3] = system: anesthetized cats (evoked responses of anterior tibial muscle); assay: animal or person; conditions: for ED50: Felis catus, iv; for VB (vagal block) / ΔBP (change in arterial blood pressure) / ΔH (change in heart rate) / RI (recovery index) / Onset: cat; for VB (vagal block) / ΔBP (change in arterial blood pressure) / ΔH (change in heart rate): at 80-85% neuromuscular blocking dose; for RI (recovery index): spontaneous recovery, 25-75% neuromuscular response; for Onset: time to 80-85% neuromuscular block
Method in brief: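 Adult cats anesthetized i.p. with 70 mg/kg alpha chloralose plus 0.5 g/kg ethylurethane; agents in saline given i.v. Anterior tibial muscle responses to supramaximal single or train-of-four stimuli of sciatic or peroneal nerve recorded electromyographically and mechanomyographically, alongside blood pressure and heart rate.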

Compound | ED50 (rabbits) [mg/kg] | ΔBP (change in arterial blood pressure) (rabbits) [%] | ΔH (change in heart rate) (rabbits) [%] | RI (recovery index) (rabbits) [min] | Onset (rabbits) [min] | ED50 [1] [mg/kg] | VB (vagal block) [1] [%] | ΔBP (change in arterial blood pressure) [1] [%] | ΔH (change in heart rate) [1] [%] | RI (recovery index) [1] [min] | Onset [1] [min] | ED50 (anesthetized monkeys) [mg/kg] | ΔBP (change in arterial blood pressure) (anesthetized monkeys) [%] | ΔH (change in heart rate) (anesthetized monkeys) [%] | RI (recovery index) (anesthetized monkeys) [min] | Onset (anesthetized monkeys) [min] | ED50 (dogs) [mg/kg] | ΔBP (change in arterial blood pressure) (dogs) [%] | ΔH (change in heart rate) (dogs) [%] | RI (recovery index) (dogs) [min] | also measured
CC(=O)Oc1ccc(C[N+]2(C)[C@@H]3CC[C@H]2C[C@@H](OC(=O)C2CCC2C(=O)O[C@H]2C[C@H]4CC[C@@H](C2)[N+]4(C)Cc2ccc(OC(C)=O)c(OC(C)=O)c2)C3)cc1OC(C)=O.[Br-].[Br-] (stereo partly drawn) [bis[N-(3,4-diacetoxybenzyl)tropanium-3α-yl]cyclobutane-1,2-dicarboxylate dibromide] | 0.078 | 0 | 0 | 0.6 | 0.8 | 0.218 | 5 | 0 | 0 | 0.45 | 0.7 | 0.054 | 0 | 0 | 0.4 | 0.95 | 0.1 | −7 | 10 | 0.65 | Onset (dogs): 0.9 min; ED50 [2]: 0.275 mg/kg; VB (vagal block) [2]: 42%; ΔBP (change in arterial blood pressure) [2]: 0%; ΔH (change in heart rate) [2]: 0%; RI (recovery index) [2]: 0.85 min; Onset [2]: 0.68 min; ED50 [3]: 0.135 mg/kg; VB (vagal block) [3]: 12%; ΔBP (change in arterial blood pressure) [3]: 0%; ΔH (change in heart rate) [3]: 0%; RI (recovery index) [3]: 0.5 min; Onset [3]: 0.95 min
CC(=O)Oc1ccc(C[N+]2(C)[C@@H]3CC[C@H]2C[C@@H](OC(=O)C2CCCC(C(=O)O[C@H]4C[C@H]5CC[C@@H](C4)[N+]5(C)Cc4ccc(OC(C)=O)c(OC(C)=O)c4)C2)C3)cc1OC(C)=O.[Br-].[Br-] (stereo partly drawn) [bis[N-(3,4-diacetoxybenzyl)tropanium-3α-yl]cyclohexane-1,3-dicarboxylate dibromide] | 0.1 | 0 | 0 | 0.7 | 0.9 | 0.24 | 28 | 0 | 0 | 0.5 | 0.65 | 0.075 | 0 | 0 | 0.65 | 0.95 | 0.128 | −5 | 30 | 0.55 | Onset (dogs): 0.75 min; ED50 [2]: 0.225 mg/kg; VB (vagal block) [2]: 54%; ΔBP (change in arterial blood pressure) [2]: 0%; ΔH (change in heart rate) [2]: 0%; RI (recovery index) [2]: 0.85 min; Onset [2]: 0.8 min; ED50 [3]: 0.11 mg/kg; VB (vagal block) [3]: 34%; ΔBP (change in arterial blood pressure) [3]: −25%; ΔH (change in heart rate) [3]: −12%; RI (recovery index) [3]: 0.5 min; Onset [3]: 0.8 min
CC(=O)Oc1ccc(C[N+]2(C)[C@@H]3CC[C@H]2C[C@@H](OC(=O)CCCC(=O)O[C@H]2C[C@H]4CC[C@@H](C2)[N+]4(C)Cc2ccc(OC(C)=O)c(OC(C)=O)c2)C3)cc1OC(C)=O.[Br-].[Br-] (stereo partly drawn) [bis[N-(3,4-diacetoxybenzyl)tropanium-3α-yl]glutarate dibromide] | 0.065 | 0 | 0 | 0.7 | 0.9 | 0.232 | 10 | 0 | 0 | 0.6 | 0.75 | 0.088 | 0 | 0 | 0.8 | 1 | 0.11 | 0 | 0 | 0.6 | Onset (dogs): 0.9 min; ED50 [2]: 0.23 mg/kg; VB (vagal block) [2]: 41%; ΔBP (change in arterial blood pressure) [2]: 0%; ΔH (change in heart rate) [2]: 0%; RI (recovery index) [2]: 1.1 min; Onset [2]: 0.95 min; ED50 [3]: 0.183 mg/kg; VB (vagal block) [3]: 8%; ΔBP (change in arterial blood pressure) [3]: 0%; ΔH (change in heart rate) [3]: 0%; RI (recovery index) [3]: 0.6 min; Onset [3]: 1 min
COc1cc(C[N+]2(C)[C@@H]3CC[C@H]2C[C@@H](OC(=O)C2CCC2C(=O)O[C@H]2C[C@H]4CC[C@@H](C2)[N+]4(C)Cc2ccc(OC(C)=O)c(OC)c2)C3)ccc1OC(C)=O.[Br-].[Br-] (stereo partly drawn) [bis[N-(4-acetoxy-3-methoxybenzyl)tropanium-3α-yl]cyclobutane-1,2-dicarboxylate dibromide] | 0.075 | 0 | 0 | 0.55 | 0.6 | 0.35 | 20 | 0 | 0 | 0.5 | 0.6 | 0.092 | 0 | 0 | 0.5 | 0.75 | 0.145 | −15 | 45 | 0.7 | Onset (dogs): 0.85 min; ED50 [2]: 0.268 mg/kg; VB (vagal block) [2]: 46%; ΔBP (change in arterial blood pressure) [2]: 0%; ΔH (change in heart rate) [2]: 0%; RI (recovery index) [2]: 0.87 min; Onset [2]: 0.5 min; ED50 [3]: 0.16 mg/kg; VB (vagal block) [3]: 20%; ΔBP (change in arterial blood pressure) [3]: 0%; ΔH (change in heart rate) [3]: 0%; RI (recovery index) [3]: 0.5 min; Onset [3]: 0.9 min
COc1cc(C[N+]2(C)[C@@H]3CC[C@H]2C[C@@H](OC(=O)C2CCCC(C(=O)O[C@H]4C[C@H]5CC[C@@H](C4)[N+]5(C)Cc4ccc(OC(C)=O)c(OC)c4)C2)C3)ccc1OC(C)=O.[Br-].[Br-] (stereo partly drawn) [bis[N-(4-acetoxy-3-methoxybenzyl)tropanium-3α-yl]cyclohexane-1,3-dicarboxylate dibromide] | 0.165 | 0 | 0 | 0.65 | 0.65 | 0.27 | 30 | 0 | 0 | 0.45 | 0.55 | 0.1 | 0 | 0 | 0.5 | 0.9 | 0.28 | −25 | 38 | 0.5 | Onset (dogs): 0.75 min; ED50 [2]: 0.183 mg/kg; VB (vagal block) [2]: 65%; ΔBP (change in arterial blood pressure) [2]: 0%; ΔH (change in heart rate) [2]: 0%; RI (recovery index) [2]: 0.75 min; Onset [2]: 0.6 min; ED50 [3]: 0.325 mg/kg; VB (vagal block) [3]: 33%; ΔBP (change in arterial blood pressure) [3]: −5%; ΔH (change in heart rate) [3]: 0%; RI (recovery index) [3]: 0.5 min; Onset [3]: 0.9 min
